ChEMBL document CHEMBL1201862, “PubChem BioAssay data set” (2004)
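How tested: cells in 96-well plates exposed to compound for 48 hours at five concentrations. GI50 is the concentration that inhibits growth by half.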 The source made the active and inactive calls. Cut-off read from the data, not from the text of the source: active = GI50 up to about 1.1 µM and inactive = higher.

Legend:
Assay in all cases: NCI tumour cell line growth inhibition, 48 h
UACC-257 = test system: UACC-257
A498 = test system: A498
SNB-19 = test system: SNB-19
SF-539 = test system: SF-539
NCI-H460 = test system: NCI-H460
MOLT-4 = test system: MOLT-4
786-0 = test system: 786-0
SK-MEL-28 = test system: SK-MEL-28
NCI-H226 = test system: NCI-H226
KM12 = test system: KM12
M14 = test system: M14
HT-29 = test system: HT-29
OVCAR-4 = test system: OVCAR-4
MDA-MB-231 = test system: MDA-MB-231
NCI-H23 = test system: NCI-H23
HCC 2998 = test system: HCC 2998
Hs-578T = test system: Hs-578T
SNB-75 = test system: SNB-75
Malme-3M = test system: Malme-3M
IGROV-1 = test system: IGROV-1
PC-3 = test system: PC-3
SW-620 = test system: SW-620
SF-295 = test system: SF-295
OVCAR-5 = test system: OVCAR-5
T47D = test system: T47D
SK-MEL-5 = test system: SK-MEL-5
HL-60 = test system: HL-60
A549 = test system: A549
UACC-62 = test system: UACC-62
HOP-92 = test system: HOP-92
NCI/ADR-RES = test system: NCI/ADR-RES
RXF 393 = test system: RXF 393
LOX IMVI = test system: LOX IMVI
MDA-MB-435 = test system: MDA-MB-435
SK-MEL-2 = test system: SK-MEL-2
DU-145 = test system: DU-145
HCT-116 = test system: HCT-116
SF-268 = test system: SF-268
EKVX = test system: EKVX
MDA-N = test system: MDA-N
HOP-62 = test system: HOP-62
NCI-H522 = test system: NCI-H522
OVCAR-3 = test system: OVCAR-3
SR = test system: SR
MCF7 = test system: MCF7
U-251 = test system: U-251
UO-31 = test system: UO-31
CAKI-1 = test system: CAKI-1
CCRF-CEM = test system: CCRF-CEM
BT-549 = test system: BT-549
K562 = test system: K562
COLO 205 = test system: COLO 205
HCT-15 = test system: HCT-15
ACHN = test system: ACHN
OVCAR-8 = test system: OVCAR-8
SN12C = test system: SN12C
RPMI-8226 = test system: RPMI-8226
TK-10 = test system: TK-10
SK-OV-3 = test system: SK-OV-3

C/C(=N\NC(N)=O)C(CN(C)C)C(c1ccccc1)c1c(O)c2ccccc2oc1=O (stereo unspecified)
GI50 (UACC-257): > 100 µM (inactive) | GI50 (A498): > 100 µM (inactive) | GI50 (SNB-19): > 100 µM (inactive) | GI50 (SF-539): > 100 µM (inactive) | GI50 (NCI-H460): > 100 µM (inactive) | GI50 (MOLT-4): 71.9 µM (inactive) | GI50 (786-0): > 100 µM (inactive) | GI50 (SK-MEL-28): > 100 µM (inactive) | GI50 (NCI-H226): > 100 µM (inactive) | GI50 (KM12): > 100 µM (inactive) | GI50 (M14): > 100 µM (inactive) | GI50 (HT-29): > 100 µM (inactive) | GI50 (OVCAR-4): > 100 µM (inactive) | GI50 (MDA-MB-231): > 100 µM (inactive) | GI50 (NCI-H23): > 100 µM (inactive) | GI50 (HCC 2998): > 100 µM (inactive) | GI50 (Hs-578T): > 100 µM (inactive) | GI50 (SNB-75): > 100 µM (inactive) | GI50 (Malme-3M): 42.4 µM (inactive) | GI50 (IGROV-1): > 100 µM (inactive) | GI50 (PC-3): > 100 µM (inactive) | GI50 (SW-620): > 100 µM (inactive) | GI50 (SF-295): > 100 µM (inactive) | GI50 (OVCAR-5): > 100 µM (inactive) | GI50 (T47D): > 100 µM (inactive) | GI50 (SK-MEL-5): > 100 µM (inactive) | GI50 (HL-60): 38.4 µM (inactive) | GI50 (A549): > 100 µM (inactive) | GI50 (UACC-62): > 100 µM (inactive) | GI50 (HOP-92): 0.296 µM (active) | GI50 (NCI/ADR-RES): > 100 µM (inactive) | GI50 (RXF 393): 88.7 µM (inactive) | GI50 (LOX IMVI): > 100 µM (inactive) | GI50 (MDA-MB-435): > 100 µM (inactive) | GI50 (SK-MEL-2): > 100 µM (inactive) | GI50 (DU-145): > 100 µM (inactive) | GI50 (HCT-116): > 100 µM (inactive) | GI50 (SF-268): > 100 µM (inactive) | GI50 (EKVX): > 100 µM (inactive) | GI50 (MDA-N): > 100 µM (inactive) | GI50 (HOP-62): > 100 µM (inactive) | GI50 (NCI-H522): > 100 µM (inactive) | GI50 (OVCAR-3): > 100 µM (inactive) | GI50 (SR): > 100 µM (inactive) | GI50 (MCF7): > 100 µM (inactive) | GI50 (U-251): > 100 µM (inactive) | GI50 (UO-31): > 100 µM (inactive) | GI50 (CAKI-1): > 100 µM (inactive) | GI50 (CCRF-CEM): 90.8 µM (inactive) | GI50 (BT-549): > 100 µM (inactive) | GI50 (K562): > 100 µM (inactive) | GI50 (COLO 205): 36.4 µM (inactive) | GI50 (HCT-15): > 100 µM | GI50 (ACHN): > 100 µM (inactive) | GI50 (OVCAR-8): > 100 µM (inactive) | GI50 (SN12C): > 100 µM (inactive) | GI50 (RPMI-8226): 61.5 µM (inactive) | GI50 (TK-10): > 100 µM (inactive)

COc1ccc2c(c1)-c1c(c3cc(OC)ccc3n1CCCN(C)C)CC2
GI50 (UACC-257): 3.48 µM (inactive) | GI50 (A498): 13.4 µM (inactive) | GI50 (SNB-19): 14.6 µM (inactive) | GI50 (NCI-H460): 10.1 µM (inactive) | GI50 (MOLT-4): 5.93 µM (inactive) | GI50 (786-0): 9.04 µM (inactive) | GI50 (SK-MEL-28): 5.78 µM (inactive) | GI50 (NCI-H226): 1.84 µM (inactive) | GI50 (KM12): 7.93 µM (inactive) | GI50 (M14): 2.03 µM (inactive) | GI50 (HT-29): 2.81 µM (inactive) | GI50 (OVCAR-4): 11 µM (inactive) | GI50 (MDA-MB-231): 13 µM (inactive) | GI50 (NCI-H23): 16.8 µM (inactive) | GI50 (HCC 2998): 3.13 µM (inactive) | GI50 (Hs-578T): 4.29 µM (inactive) | GI50 (SNB-75): 2.99 µM (inactive) | GI50 (Malme-3M): 2.28 µM (inactive) | GI50 (IGROV-1): 2.93 µM (inactive) | GI50 (PC-3): 10.3 µM (inactive) | GI50 (SW-620): 11.1 µM (inactive) | GI50 (SF-295): 2.62 µM (inactive) | GI50 (OVCAR-5): 13.8 µM (inactive) | GI50 (T47D): 5.36 µM (inactive) | GI50 (SK-MEL-5): 2.68 µM (inactive) | GI50 (HL-60): 15.3 µM (inactive) | GI50 (A549): 12.1 µM (inactive) | GI50 (UACC-62): 6.98 µM (inactive) | GI50 (HOP-92): 12.2 µM (inactive) | GI50 (NCI/ADR-RES): 12.7 µM (inactive) | GI50 (RXF 393): 6.93 µM (inactive) | GI50 (LOX IMVI): 4.06 µM (inactive) | GI50 (MDA-MB-435): 5.55 µM (inactive) | GI50 (SK-MEL-2): 15.8 µM (inactive) | GI50 (DU-145): 16.2 µM (inactive) | GI50 (HCT-116): 5.2 µM (inactive) | GI50 (SF-268): 10.7 µM (inactive) | GI50 (EKVX): 13.2 µM (inactive) | GI50 (MDA-N): 4.79 µM (inactive) | GI50 (HOP-62): 14.3 µM (inactive) | GI50 (SK-OV-3): 16.2 µM (inactive) | GI50 (NCI-H522): 9.91 µM (inactive) | GI50 (OVCAR-3): 14.1 µM (inactive) | GI50 (SR): 5.18 µM (inactive) | GI50 (MCF7): 7.83 µM (inactive) | GI50 (U-251): 8.67 µM (inactive) | GI50 (UO-31): 10.8 µM (inactive) | GI50 (CAKI-1): 12.4 µM (inactive) | GI50 (CCRF-CEM): 4.46 µM (inactive) | GI50 (BT-549): 15.5 µM (inactive) | GI50 (K562): 4.3 µM (inactive) | GI50 (COLO 205): 2.02 µM (inactive) | GI50 (HCT-15): 11.4 µM | GI50 (ACHN): 14.3 µM (inactive) | GI50 (OVCAR-8): 13.7 µM (inactive) | GI50 (SN12C): 12 µM (inactive) | GI50 (RPMI-8226): 5.24 µM (inactive) | GI50 (TK-10): 16.5 µM (inactive)
